Test results taken from the supplement of paper PMC10307832.

What was measured:
Assay in all cases: relative viability (nuclei count vs DMSO), 5 days (fraction); higher = more cells survive
[1] = compound: CCn1c(-c2nonc2N)nc2cnc(Oc3cccc(NC(=O)c4ccc(OCCN5CCOCC5)cc4)c3)cc21 + O=C(c1cc(Cc2n[nH]c(=O)c3ccccc23)ccc1F)N1CCN(C(=O)C2CC2)CC1 [Olaparib] (partner 8 µM)
Method in brief: (§1)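 Relative viability equals treated-well nuclei counts divided by vehicle-well nuclei counts. Counts came from 4× images of lung cancer cell lines grown in 1536-well plates for 5 days after pin-tool dosing on the day after seeding. Dosing used one drug alone or a fixed anchor-drug dose plus five library-drug doses (not always all listed) in √10 steps, and values are medians of duplicate plates.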

[2] = compound: CCn1c(-c2nonc2N)nc2cnc(Oc3cccc(NC(=O)c4ccc(OCCN5CCOCC5)cc4)c3)cc21 + Nc1nc2[nH]cc(CCc3ccc(C(=O)N[C@@H](CCC(=O)O)C(=O)O)cc3)c2c(=O)[nH]1 [Pemetrexed] (partner 0.2 µM)
Method in brief: as §1

[3] = compound: CCC1=CN=CN=C1N2CCN(CC2)CC3=NC4=C(N3)C=C(C=C4)C(F)(F)F + O=C(c1cc(Cc2n[nH]c(=O)c3ccccc23)ccc1F)N1CCN(C(=O)C2CC2)CC1 [Olaparib] (partner 8 µM)
Method in brief: as §1

[4] = compound: CCn1c(-c2nonc2N)nc2cnc(Oc3cccc(NC(=O)c4ccc(OCCN5CCOCC5)cc4)c3)cc21 + N=C(N)NC(=N)NCCc1ccccc1 [Phenformin] (partner 250 µM)
Method in brief: as §1

| Cell Line | relative viability ([1]; first compound 0.04 µM) | relative viability ([1]; first compound 0.1265 µM) | relative viability ([1]; first compound 0.4 µM) | relative viability ([1]; first compound 1.265 µM) | relative viability ([1]; first compound 4 µM) | relative viability ([2]; first compound 0.04 µM) | relative viability ([2]; first compound 0.1265 µM) | relative viability ([2]; first compound 0.4 µM) | relative viability ([2]; first compound 1.265 µM) | relative viability ([2]; first compound 4 µM) | relative viability ([3]; first compound 0.04 µM) | relative viability ([3]; first compound 0.1265 µM) | relative viability ([3]; first compound 0.4 µM) | relative viability ([3]; first compound 1.265 µM) | relative viability ([3]; first compound 4 µM) | relative viability ([4]; first compound 0.04 µM) | relative viability ([4]; first compound 0.1265 µM) | relative viability ([4]; first compound 0.4 µM) | relative viability ([4]; first compound 1.265 µM) | relative viability ([4]; first compound 4 µM) |
| --- | --- | --- | --- | --- | --- | --- | --- | --- | --- | --- | --- | --- | --- | --- | --- | --- | --- | --- | --- | --- |
| HCC-44 | 1.07 | 0.996 | 0.945 | 0.999 | 0.802 | 0.62 | 0.652 | 0.547 | 0.678 | 0.425 | 1.02 | 0.963 | 0.978 | 0.99 | 0.966 | 0.249 | 0.216 | 0.113 | 0.096 | 0.074 |
| LOU-NH91 | 0.919 | 0.756 | 0.665 | 0.494 | 0.534 | 0.371 | 0.355 | 0.355 | 0.288 | 0.356 | 0.892 | 0.951 | 0.898 | 0.896 | 0.94 | 0.797 | 0.605 | 0.465 | 0.389 | 0.404 |
| NCI-H460 | 0.545 | 0.383 | 0.458 | 0.085 | 0.138 | 0.0568 | 0.0572 | 0.0592 | 0.0521 | 0.0564 | 0.521 | 0.423 | 0.404 | 0.368 | 0.399 | 0.664 | 0.432 | 0.295 | 0.0979 | 0.0635 |
| NCI-H650 | 0.374 | 0.377 | 0.279 | 0.259 | 0.236 | 1.05 | 0.799 | 0.454 | 0.425 | 0.458 | 0.386 | 0.373 | 0.393 | 0.331 | 0.347 | 0.485 | 0.381 | 0.258 | 0.246 | 0.292 |
| NCI-H1915 | 0.252 | 0.265 | 0.251 | 0.185 | 0.167 | 0.497 | 0.494 | 0.448 | 0.183 | 0.174 | 0.27 | 0.248 | 0.252 | 0.268 | 0.249 | 0.38 | 0.355 | 0.285 | 0.188 | 0.169 |
| NCI-H1734 | 0.654 | 0.583 | 0.557 | 0.442 | 0.328 | 0.397 | 0.401 | 0.307 | 0.281 | 0.29 | 0.63 | 0.609 | 0.587 | 0.584 | 0.557 | 0.427 | 0.388 | 0.209 | 0.284 | 0.201 |
| NCI-H1993 | 1.06 | 1 | 1.06 | 1.13 | 0.849 | 0.649 | 0.616 | 0.526 | 0.579 | 0.526 | 0.95 | 1.03 | 1.09 | 0.895 | 0.974 | 0.66 | 0.562 | 0.546 | 0.565 | 0.508 |
| LK-2 | 1.13 | 0.745 | 0.367 | 0.326 | 0.555 | 0.308 | 0.354 | 0.151 | 0.139 | 0.265 | 0.817 | 0.675 | 0.603 | 0.517 | 0.712 | 0.864 | 0.618 | 0.167 | 0.189 | 0.244 |
